Drawing on patent publication US8222247B2, “Modulators of glucocorticoid receptor, AP-1, and/or NF-kappabeta activity and use thereof” (Bristol-Myers Squibb Company, priority 2006, dated 2012), this text covers percent relative binding activity vs dexamethasone and Ki for 19 compounds.

The target of assay [1] is T1, human full-length glucocorticoid receptor (Homo sapiens, UniProt P04150).
T1 construct: recombinantly expressed human full-length glucocorticoid receptor; purchased PanVera Co., Madison, Wis; P2816
T1 sequence (P04150 1-777): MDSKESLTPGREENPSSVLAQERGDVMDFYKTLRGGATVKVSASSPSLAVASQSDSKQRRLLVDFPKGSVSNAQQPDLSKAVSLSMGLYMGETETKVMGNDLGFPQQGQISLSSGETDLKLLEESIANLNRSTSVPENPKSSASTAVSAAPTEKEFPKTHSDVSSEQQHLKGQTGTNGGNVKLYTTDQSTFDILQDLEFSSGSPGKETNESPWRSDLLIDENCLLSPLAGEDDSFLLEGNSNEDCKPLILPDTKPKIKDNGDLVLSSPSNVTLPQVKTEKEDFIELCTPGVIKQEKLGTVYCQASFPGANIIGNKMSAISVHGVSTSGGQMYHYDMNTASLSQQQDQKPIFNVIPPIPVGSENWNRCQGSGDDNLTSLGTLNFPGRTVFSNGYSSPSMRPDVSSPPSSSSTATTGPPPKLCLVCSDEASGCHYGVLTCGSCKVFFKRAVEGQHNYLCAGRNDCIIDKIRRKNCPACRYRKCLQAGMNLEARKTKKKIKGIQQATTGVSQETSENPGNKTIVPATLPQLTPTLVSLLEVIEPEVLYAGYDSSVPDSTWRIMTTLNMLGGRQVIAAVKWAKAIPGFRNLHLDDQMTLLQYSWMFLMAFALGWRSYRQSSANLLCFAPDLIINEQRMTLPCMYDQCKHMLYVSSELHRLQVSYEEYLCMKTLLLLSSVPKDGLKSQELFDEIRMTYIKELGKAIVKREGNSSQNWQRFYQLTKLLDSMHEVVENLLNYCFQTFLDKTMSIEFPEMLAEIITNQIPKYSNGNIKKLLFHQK
The assay is described as follows: Glucocorticoid Receptor Binding Assay (II), fluorescence polarization competitor kit. Conditions: 1 h, % Relative Binding Affinity to dexamethasone, read-out: GR (% RBA* @ 10 μM) (GR Binding Assay (II)b). As for the experimental part:
Glucocorticoid Receptor Binding Assay (II)^b
In order to measure the binding of compounds on the glucocorticoid receptor a commercially available kit was used (Glucocorticoid receptor competitor assay kit, PanVera Co., Madison, Wis., P2816). Briefly, a cell lysate containing recombinantly expressed human full-length glucocorticoid receptor was mixed with a fluorescently labeled glucocorticoid (1 nM Fluormone GS1) in the presence or absence of test compound. After one hour at room temperature, the fluorescence polarization (FP) of the samples were measured. The FP of a mixture of receptor, fluorescent probe (i.e. Fluormone GS1) and 1 mM dexamethasone represented background fluorescence or 100% inhibition, whereas, the FP of the mixture without dexamethasone was taken to be 100% binding. The percentage inhibition of test molecules were then compared to the sample with 1 mM dexamethasone and expressed as % relative binding activity with dexamethasone being 100% and no inhibition is 0%. Test molecules were analyzed in the concentration range from 2.4 nM to 40 microMolar.
A general note: Fluorescence polarisation rises when a labelled molecule tumbles more slowly, as on binding a larger partner.

Assay [2] addresses T2, human glucocorticoid receptor (Homo sapiens, UniProt P04150).
T2 construct: purified human recombinant full-length glucocorticoid receptor (2 nM); purchased Invitrogen Part #2893
T2 sequence (P04150 1-777): T1 sequence (P04150 1-777)
The assay is described as follows: Glucocorticoid Receptor Binding Assay (I), fluorescence polarization competitor kit. The conditions noted are these: purified human recombinant full-length GR, Fluormone GS Red. The gist of the method: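 Fluorescence polarization competition of purified recombinant full-length human GR (2 nM) with 1 nM Fluormone GS Red, incubated 2 h at room temperature in the dark. Normalized to vehicle (0%) and 5 μM dexamethasone (100%) as % relative binding activity. Compounds tested 8.5E-05 to 5 μM.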

In the case of `CC(C)(C(=O)Nc1nccs1)C(c1ccccc1)c1ccc(N2CCOCC2)nc1` (single isomer, unassigned) [Example 20, 2,2-Dimethyl-3-(6-(4-morpholinyl)-3-pyridinyl)-3-phenyl-N-1,3-thiazol-2-ylpropanamide], the percent relative binding activity vs dexamethasone at 10 µM in assay [1] amounted to 152%. Turning to `CC(C)(C(=O)Nc1nncs1)C(c1ccccc1)c1ccc(N2CCOCC2)nc1` (single isomer, unassigned) [Example 22, 2,2-Dimethyl-3-(6-(4-morpholinyl)-3-pyridinyl)-3-phenyl-N-1,3,4-thiadiazol-2-ylpropanamide], the percent relative binding activity vs dexamethasone at 10 µM in assay [1] was 477%. On to `CC(C)(C(=O)Nc1nncs1)C(c1cccc(F)c1)c1ccc(Br)s1` (centres unmarked) [Example 1, 3-(5-Bromo-2-thienyl)-3-(3-fluorophenyl)-2,2-dimethyl-N-1,3,4-thiadiazol-2-ylpropanamide], for which the percent relative binding activity vs dexamethasone at 10 µM in assay [1] was 6.4%. Still for that read-out and setting: the value for `CC(C)(C(=O)Nc1nccs1)C(c1cccc(F)c1)c1ccc(Br)s1` (centres unmarked) [Example 2, 3-(5-bromo-2-thienyl)-3-(3-fluorophenyl)-2,2-dimethyl-N-1,3-thiazol-2-ylpropanamide] was 10.1%; that for `CC(C)(C(=O)Nc1nncs1)C(c1ccccc1)c1ccncc1` (centres unmarked) [Example 6, 2,2-dimethyl-3-phenyl-3-(4-pyridinyl)-N-1,3,4-thiadiazol-2-ylpropanamide] was 502%. On the same count and under the same terms, the value for `CC(C)(C(=O)Nc1nccs1)C(c1ccccc1)c1ccncc1` (centres unmarked) [Example 7, 2,2-dimethyl-3-phenyl-3-(4-pyridinyl)-N-1,3-thiazol-2-ylpropanamide] was 161%.

Take `CC(C)(C(=O)Nc1nncs1)C(c1cccc(F)c1)c1ccc(N2CCOCC2)s1` (centres unmarked) [Example 9, 3-(3-fluorophenyl)-2,2-dimethyl-3-(5-(4-morpholinyl)-2-thienyl)-N-1,3,4-thiadiazol-2-ylpropanamide]: the Ki in assay [2] was 24.6 nM. The percent relative binding activity vs dexamethasone at 10 µM in assay [1] stood at 49.7%. Consider `CC(C)(C(=O)Nc1nncs1)C(c1ccc(N2CCOCC2)cc1)c1cccs1` (centres unmarked) [Example 11, 2,2-dimethyl-3-(4-(4-morpholinyl)phenyl)-N-1,3,4-thiadiazol-2-yl-3-(2-thienyl)propanamide], for which, in assay [1], the percent relative binding activity vs dexamethasone at 10 µM worked out at 7.4%.

With `CC(C)(C(=O)Nc1nccs1)C(c1ccc(N2CCOCC2)cc1)c1cccs1` (centres unmarked) [Example 12, 2,2-dimethyl-3-(4-(4-morpholinyl)phenyl)-N-1,3-thiazol-2-yl-3-(2-thienyl)propanamide], the percent relative binding activity vs dexamethasone at 10 µM in assay [1] came to 6.1%.

`CC(C)(C(=O)Nc1nncs1)C(c1ccccc1)c1ccc(N2CCCCC2)nc1` (centres unmarked) [Example 15, 2,2-dimethyl-3-phenyl-3-(6-(1-piperidinyl)-3-pyridinyl)-N-1,3,4-thiadiazol-2-ylpropanamide]: the percent relative binding activity vs dexamethasone at 10 µM in assay [1] stood at 14.7%. Turning to `CC(C)(C(=O)Nc1nncs1)C(c1ccccc1)c1ccc(N2CCCC2)nc1` (centres unmarked) [Example 16, 2,2-dimethyl-3-phenyl-3-(6-(1-pyrrolidinyl)-3-pyridinyl)-N-1,3,4-thiadiazol-2-ylpropanamide], in assay [1], the percent relative binding activity vs dexamethasone at 10 µM came to 90.4%. On to `CC(C)(C(=O)Nc1nncs1)C(c1ccccc1)c1ccc(N2CCC(O)CC2)nc1` (centres unmarked) [Example 17, 3-(6-(4-hydroxy-1-piperidinyl)-3-pyridinyl)-2,2-dimethyl-3-phenyl-N-1,3,4-thiadiazol-2-ylpropanamide], for which the percent relative binding activity vs dexamethasone at 10 µM in assay [1] was found to be 112%. On the same count and under the same terms, the value for `Cc1ccc(CNc2ccc(C(c3ccccc3)C(C)(C)C(=O)Nc3nccs3)cn2)cc1` (centres unmarked) [Example 18, 2,2-dimethyl-3-(6-((4-methylbenzyl)amino)-3-pyridinyl)-3-phenyl-N-1,3-thiazol-2-ylpropanamide] was 37.2%; that for `COc1ccc(-c2ccc(C(c3ccccc3)C(C)(C)C(=O)Nc3nncs3)cn2)cc1` (centres unmarked) [Example 24, 3-(6-(4-Methoxyphenyl)-3-pyridinyl)-2,2-dimethyl-3-phenyl-N-1,3,4-thiadiazol-2-ylpropanamide] was 16.3%; that for `CC(C)(C(=O)Nc1nccs1)C(c1ccccc1)c1ccc(-c2ccoc2)nc1` (centres unmarked) [Example 25, 3-(6-(3-furyl)-3-pyridinyl)-2,2-dimethyl-3-phenyl-N-1,3-thiazol-2-ylpropanamide] was 73.4%.

Turning to `COc1ncc(C(c2ccccc2)C(C)(C)C(=O)Nc2nncs2)cc1Cl` (centres unmarked) [Example 27, 3-(5-chloro-6-methoxy-3-pyridinyl)-2,2-dimethyl-3-phenyl-N-1,3,4-thiadiazol-2-ylpropanamide], the percent relative binding activity vs dexamethasone at 10 µM in assay [1] came out at 52.8%. On the same count and under the same terms, then `CC(C)(C(=O)Nc1nncs1)C(c1ccccc1)c1cnc(N2CCOCC2)c(Cl)c1` (centres unmarked) [Example 28, 3-(5-chloro-6-(4-morpholinyl)-3-pyridinyl)-2,2-dimethyl-3-phenyl-N-1,3,4-thiadiazol-2-ylpropanamide], with 187%. As for `C[C@H](C(=O)Nc1nncs1)[C@@H](c1ccccc1)c1ccc(-c2ccc(C(=O)N(C)C)cc2)s1` [Example 137, N,N-dimethyl-4-(5-((1S,2S)-2-methyl-3-oxo-1-phenyl-3-(1,3,4-thiadiazol-2-ylamino)propyl)-2-thienyl)benzamide], the Ki in assay [2] was found to be 4.73 nM. Turning to `CCN(C)C(=O)c1ccc(-c2ccc([C@@H](c3cccc(F)c3)[C@@H](C)C(=O)Nc3ncc(C)s3)s2)cc1` [Example 142, N-ethyl-4-(5-((1R,2R)-1-(3-fluorophenyl)-2-methyl-3-((5-methyl-1,3-thiazol-2-yl)amino)-3-oxopropyl)-2-thienyl)-N-methylbenzamide], the Ki in assay [2] came to 3.2 nM.

Usually Ki stands for the equilibrium dissociation constant of an inhibitor or competing ligand from its target.
